From PubChem BioAssay (NCI)
Where “and” joins values, the source holds several entries; their conditions need not be identical. Identical values can stand only once.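 Following 48 hours of exposure in 96-well plates, responses at five concentrations were used to interpolate endpoints linearly. GI50 = concentration required for 50% inhibition of growth. TGI is the concentration that stops growth completely.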

Key:
Experiment in all cases: NCI anticancer screen, dose series, 48 h
ACHN renal = tested on: ACHN renal
U251 CNS = tested on: U251 CNS
MDA-N = tested on: MDA-N
MOLT-4 leukemia = tested on: MOLT-4 leukemia
HT29 colon = tested on: HT29 colon
KM12 colon = tested on: KM12 colon
HCC-2998 colon = tested on: HCC-2998 colon
A498 renal = tested on: A498 renal
SK-MEL-28 melanoma = tested on: SK-MEL-28 melanoma
T-47D breast = tested on: T-47D breast

SMILES	TGI (ACHN renal)	TGI (U251 CNS)	TGI (MDA-N)	GI50 (MOLT-4 leukemia)	TGI (MOLT-4 leukemia)	TGI (HT29 colon)	GI50 (KM12 colon)	TGI (KM12 colon)	TGI (HCC-2998 colon)	TGI (A498 renal)	TGI (SK-MEL-28 melanoma)	TGI (T-47D breast)
C=C1C(=O)OC2/C=C(\CO)C(OC(C)=O)CC(O)/C(C)=C/C(OC(=O)C(C)CC)C12 (configuration not stated)	56.7 µM and 72.7 µM	> 91.6 µM and 66.3 µM	33.4 µM	11 µM and 22.6 µM	28.2 µM and 64.3 µM	46.6 µM and 35.5 µM	17.5 µM and 35.2 µM	32.5 µM and > 100 µM	52.7 µM and 30.4 µM	91.9 µM and 88.7 µM	32.3 µM and 70.1 µM	30.7 µM
Nc1nn2c(C(Br)Br)cc(C(Br)Br)nc2c1[N+](=O)[O-]	2.1 µM	2.54 µM	2.26 µM		1.21 µM	3.28 µM		2.83 µM	4.52 µM	4.72 µM	2.88 µM	5.27 µM
O=C(NC(Cc1c[nH]c2ccccc12)C(=O)O)/C(=C/c1ccccc1O)NC(=O)c1ccccc1 (configuration not stated)	33.3 µM	> 100 µM	> 100 µM		> 100 µM	> 100 µM		> 100 µM	> 100 µM	> 100 µM	> 100 µM	> 100 µM
Cc1ccc(S(=O)(=O)Oc2cc(N)c3c(n2)CCC3)cc1	> 100 µM	> 100 µM	> 100 µM		> 100 µM	> 100 µM		> 100 µM	> 100 µM	> 100 µM	> 100 µM	> 100 µM
CC1(C)O[C@@H]2COC(=O)[C@@H]2O1	> 100 µM	> 100 µM	> 100 µM		> 100 µM	> 100 µM		> 100 µM	> 100 µM	> 100 µM	> 100 µM	> 100 µM
C=C1[C@@H](O)C[C@@]23CC[C@@H]4[C@@]5(C)CC[C@@H](OC(C)=O)C(C)(C)[C@@H]5C[C@@H](OC5OC(COC(C)=O)C(O)C(O)C5O)[C@@]4(C)C2=CC[C@H]3[C@H]1C (some centres not stated)	21.9 µM	12.5 µM	17.5 µM		8.32 µM	4.75 µM		8.16 µM	3.88 µM	23.8 µM	19.8 µM	19.2 µM
CC(C)=CCc1c2c(c3occ(-c4ccc(O)c(O)c4)c(=O)c3c1O)C=CC(C)(C)O2	6.29 µM	2.8 µM	3.38 µM		1.43 µM	3.84 µM		3.41 µM	2.45 µM	29 µM	8.66 µM	10.5 µM
CCCCOC(C)(C)/C=C/C(O)[C@](C)(O)[C@H]1[C@H](O)C[C@@]2(C)[C@@H]3CCc4c(cc(OC5OC(CO)C(O)C(O)C5O)c(O)c4C)C3(C)C(=O)C[C@]12C (some centres not stated)	> 100 µM	> 100 µM	> 100 µM		> 100 µM	> 100 µM		> 100 µM	> 100 µM	> 100 µM	> 100 µM	> 100 µM
O=c1cc(/C=C/c2ccc(O)c(O)c2)oc(/C=C/c2ccc(O)c(O)c2)c1	16.1 µM	9.57 µM	16.6 µM		19.9 µM	25.3 µM		16 µM	6.92 µM	14.4 µM	31.6 µM	9.5 µM
Cc1cn2c(/C=C3/C(=O)Nc4cccc(Cl)c43)c(Cl)nc2s1	> 100 µM	27.3 µM	> 100 µM		> 100 µM	> 100 µM		> 100 µM	76.5 µM	> 100 µM	36.5 µM	> 100 µM
